The values that follow come from patent US20230255970A1, “COMPOSITIONS AND METHODS FOR TREATING PROLIFERATIVE DISEASES” (The Broad Institute, Inc., priority 2020, published 2023).

For one assay, the target named is T1, p38a (MAPK14) (Homo sapiens, UniProt Q16539).
T1 construct: tested for their influence on p38a activity using the RPE1-p38 kinase translocation reporter (KTR) line; endogenous in cells; host or cells: RPE1-p38KTR cells
Put plainly: Single-cell p38a activity reporter assay (RPE1-p38 KTR). It is filed as cell-based. Particulars: 1 μM, confirmed at 10 μM; 48 hours; RPE1 cells.

A further assay deals with rat cortical neurons. Put plainly: TMRE staining (mitochondrial membrane potential) in rat cortical neurons. It is filed as cell-based. Particulars: 10 μM. As to the method:
High content mitochondrial motility screen: Mitochondrial motility was measured as described in Shlevkov, E. et al., Cell Rep. […] Briefly, we plated E18 rat cortical neurons in the middle 60 wells of 96 well plates (Greiner)—40,000 cells per well in 150 μl enriched Neurobasal media. Neurons were transfected with mito-DsRed at DIV7 using Lipofectamine2000 (Life Technologies). […] At DIV9, test compounds were added into wells to achieve a final concentration of 10 μM each (4 wells per compound), as well at 10 μM calcimycin for neg. control, and DMSO only for mock treatment. Following a 1-2 hour incubation, plates were imaged on a ArrayScan XTI (Thermo Fisher). Mitochondrial motility data was extrapolated from imaging data using a MATLAB and CellProfiler based computational pipeline. […] The experiment was repeated twice in different weeks. In the second week, TMRE was added to all wells after imaging was completed (20 min, then 2 washes) and imaged to measure mitochondrial membrane potential in order to determine mitochondrial and cell health.

The next assay deals with PPARG. The experiment in a line: PPARG reporter gene assay (FABP4-NanoLuc, RT112/84 bladder cancer cell line). The format is cell-based. The note with it: absence or presence of Rosiglitazone. As to the method:
These NanoLuc gene cloned RT112/84 cells were plated in 384-well plates at ˜10,000 cells/well. Cells were dosed with indicated compounds in the absence or presence of EC50 of PPARG agonist, rosiglitazone, using an HP D300 digital dispenser. The following day nuclei were counted for normalization (IncuCyte S3, Essen Bioscience) and the reporter activity was evaluated using the NanoGlo Luciferase Assay System (Promega). Normalized data is reported as NanoGlo arbitrary light units divided by cell number. PPARG agonist, rosiglitazone, and inhibitor, T0070907, were obtained from Tocris and included as controls.
In general terms: Reporter assays use an easily measured gene product as a stand-in for the process of interest.

The test system of assay [1] is TRAF2 overexpression in U2OS cells. Put plainly: Cell Painting morphological profile matching to TRAF2 overexpression. Particulars: Pearson correlation of Cell Painting signatures, U2OS cells. The format is cell-based, human. The source says:
(§1) Of these, analysis of the 220 constructs that were most closely representative of the annotated full-length transcripts was prioritized. […] Not all genes are likely to impact cellular morphology given the limitation of the experiment; using a single cell line at a single time point under a single set of conditions and stained with six fluorescent labels.
(§2) This standardization was done plate wise, based on the mean and standard deviation of the controls at profile level for the compound dataset. […] The signatures were then obtained by averaging the replicate profiles feature-wise. Pearson correlation was used on the aligned signatures of a gene and compound to score their connection.

The test system of a further assay is U2OS cells. Put plainly: Cell count in U2OS Cell Painting images. Particulars: U2OS Cell Painting. The format is cell-based, human.
Text: as §1, §2

For assay [2], the system named is YAP1 overexpression in U2OS cells. The experiment in a line: Cell Painting morphological profile matching to YAP1/TAZ overexpression signature. It is filed as cell-based, human. Particulars: Pearson correlation of Cell Painting signatures, U2OS cells.
Text: as §1
FIG. 2 provides an example characterization of matching the morphological signature of a gene query to the signature(s) of compounds in a library. Connections which show both positive and negative large correlations are considered as matches.
as §2

T1 sequence (Q16539 whole entry): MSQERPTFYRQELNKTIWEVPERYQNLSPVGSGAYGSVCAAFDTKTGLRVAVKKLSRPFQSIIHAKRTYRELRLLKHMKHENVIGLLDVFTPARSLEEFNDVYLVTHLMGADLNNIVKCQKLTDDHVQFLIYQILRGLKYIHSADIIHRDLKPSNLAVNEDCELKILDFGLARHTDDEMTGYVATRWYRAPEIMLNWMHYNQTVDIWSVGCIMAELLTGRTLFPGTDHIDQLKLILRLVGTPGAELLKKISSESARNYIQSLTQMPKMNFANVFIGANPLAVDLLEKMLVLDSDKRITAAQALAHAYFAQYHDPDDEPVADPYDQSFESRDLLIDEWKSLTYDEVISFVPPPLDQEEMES
Experimental for p38a (MAPK14): Cell Painting profiles for two wild-type variants of p38a (MAPK14) were averaged to create a p38a Cell Painting profile. 20 compounds whose Cell Painting profile correlated positively or negatively to that of p38a overexpression were selected in addition to 14 “non-correlated compounds” defined as having an absolute value of correlation of less than 0.2 as negative/neutral controls. The compounds were tested for their influence on p38a activity using the RPE1-p38 kinase translocation reporter (KTR) line that was previously generated. This cell line has been tested and confirmed to be negative for mycoplasma contamination, but not necessarily authenticated. P38 activity is measured by phosphorylation of its substrate, MEF2C, which is preferentially phosphorylated by p38 α, while p380 and p386 contribute less. RPE1-p38KTR cells were cultured in DMEM/F12 medium supplemented with 10% Fetal Bovine Serum at 37C in a humidified atmosphere with 5% CO2. 1000 cells were plated in 96-well plates and treated with 1p M or 10 μM of each compound (n=4 per concentration per compound, no replicates) for 48 hours. Only the middle 60 wells were used to prevent potential confounds from the edge effect. Cells were then fixed in 4% paraformaldehyde for 10 min, followed by permeabilization in cold methanol at −20C for 5 min. Cells were stained with 0.4 μg/mL Alexa Fluor 647 carboxylic acid, succinimidyl ester for 2 hr at RT, followed by 1 μg/mL DAPI for 10 min at RT to facilitate the segmentation of individual cells. p38a activity in single cells was calculated using the ratio of the median intensity of the p38-KTR in a 5-pixel-wide cytoplasmic ring around the nucleus to the median intensity of the p38-KTR in the nucleus. p38a activity measurements were normalized to DMSO conditions within the same plate. The Student's t-test Kolomogorov-Smirnov (KS) test was used to assess the score and significance of the single cell distributions of p38a activity for each compound relative to control. […] When reporting hits from this assay, KS test and t-test p-values were adjusted to control the false discovery rate using the Benjamini-Hochberg method, using the p.adjust method=‘BH” in R.

For the molecule `CCCCNc1cc(C(=O)O)cc(S(N)(=O)=O)c1Oc1ccccc1` [BRD-K38197229, 3-(butylamino)-4-phenoxy-5-sulfamoylbenzoic acid], the p38a activity entry at p38a (MAPK14) is on record as “potential inhibitors”.
In the case of `CC(C)(C)n1nc(-c2ccc(Cl)cc2)c2c(N)ncnc21` [BRD-K95785537, 1-(tert-butyl)-3-(4-chlorophenyl)-1H-pyrazolo[3,4-d]pyrimidin-4-amine], the “TMRE staining (mitochondrial membrane potential)” value (“TMRE staining” for short) in the assay on rat cortical neurons is on record as “normal levels of TMRE staining”.
As to `Cc1ccc(-c2nn(C(C)(C)C)c3ncnc(N)c23)cc1` [PP1, reference compound], the PPARG reporter activity entry with PPARG is “reporter activation”.
For `COC1(C[S@@+]([O-])c2ccccc2)CCN(CCc2c[nH]c3ccc(F)cc23)CC1` [BRD-K52394958, 5-Fluoro-3-[2-[4-methoxy-4-[[(R)-phenylsulfinyl]methyl]piperidin-1-yl]ethyl]-1H-indole], on p38a (MAPK14), the p38a activity result is reported as “identified via an alternative statistical test”.
With `CCCCCCCCCCCCCC(=O)O[C@@H]1[C@@H](C)[C@@]2(O)[C@@H](C=C(CO)C[C@]3(O)C(=O)C(C)=C[C@@H]23)[C@@H]2C(C)(C)[C@]12OC(C)=O` [BRD-K68552125, 12-O-Tetradecanoylphorbol-13-acetate], the PPARG reporter activity result in the assay with PPARG (listed as A06) was “active in the PPARG reporter assay”; in the assay with PPARG (listed as Phorbol 12-myristate 13-acetate), “inhibited reporter activity”. The “TMRE staining” value in the assay with rat cortical neurons is “normal levels of TMRE staining”.
`Oc1ccc(-c2nc(-c3ccc(F)cc3)c(-c3ccncc3)[nH]2)cc1` [SB202190, 4-(4-(4-fluorophenyl)-5-(pyridin-4-yl)-1H-imidazol-2-yl)phenol, reference compound]: the p38a activity result on p38a (MAPK14) is reported as “suppressed p38a activity”.
Turning to `CCc1cc(-c2n[nH]c(C)c2-c2ccc3c(c2)OCCO3)c(O)cc1O` [BRD-K65503129, 4-[4-(2,3-dihydro-1,4-benzodioxin-6-yl)-5-methyl-1H-pyrazol-3-yl]-6-ethylbenzene-1,3-diol], the PPARG reporter activity entry with PPARG (listed as B09) is “active in the PPARG reporter assay”; with PPARG (listed as CCT018159) it was “inhibited reporter activity”.
As to `Nc1nc(Nc2ccccc2)nc2c1ncn2C1OC(CO)C(O)C1O` (stereo not shown) [BRD-A64933752, 2-(6-amino-2-anilinopurin-9-yl)-5-(hydroxymethyl)oxolane-3,4-diol], at p38a (MAPK14), the p38a activity result is “potential inhibitors”.
Regarding `CNC[C@@H]1Oc2c(NS(=O)(=O)c3ccc(F)cc3)cccc2C(=O)N([C@H](C)CO)C[C@H]1C` [BRD-K00135177, 4-fluoro-N-[(2R,3R)-5-[(2R)-1-hydroxypropan-2-yl]-3-methyl-2-(methylaminomethyl)-6-oxo-3,4-dihydro-2H-1,5-benzoxazocin-10-yl]benzenesulfonamide], the “Corr. to TRAF2” value in assay [1] is recorded as −0.3649. In addition, the “Avg. Cell Count z-score” value in the assay with U2OS cells is on record as 0.4009. In addition, the “Corr. to YAP1 cluster” value in assay [2] amounted to 0.5004.
For the molecule `CC(C)(C)n1nc(-c2cccc3ccccc23)c2c(N)ncnc21` [BRD-K29542628, 1-(tert-Butyl)-3-(naphthalen-1-yl)-1H-pyrazolo[3,4-d]pyrimidin-4-amine], the PPARG reporter activity entry with PPARG is recorded as “active in the PPARG reporter assay”. Besides, the “TMRE staining” value with rat cortical neurons was “normal levels of TMRE staining”.
`C[C@H]1CN([C@@H](C)CO)C(=O)CCCn2nncc2CO[C@H]1CN(C)C(=O)Nc1cccc(Oc2ccccn2)c1` [BRD-K19969618, 1-[[(8S,9R)-6-[(2S)-1-hydroxypropan-2-yl]-8-methyl-5-oxo-10-oxa-1,6,14,15-tetrazabicyclo[10.3.0]pentadeca-12,14-dien-9-yl]methyl]-1-methyl-3-(3-pyridin-2-yloxyphenyl)urea]: in assay [1], the “Corr. to TRAF2” value is on record as −0.4667. The “Avg. Cell Count z-score” value with U2OS cells amounted to 0.7797. Besides, the “Corr. to YAP1 cluster” value in assay [2] is given as 0.5483.
Consider `O=C(Nc1ccc2c(c1)[C@H]1C[C@@H](CC(=O)N3CCCCC3)O[C@@H](CO)[C@H]1O2)C1CCOCC1` [BRD-K62768599, N-[(1S,3S,4aR,9aS)-1-(hydroxymethyl)-3-[2-oxo-2-(1-piperidinyl)ethyl]-3,4,4a,9a-tetrahydro-1H-pyrano[3,4-b]benzofuran-6-yl]-4-oxanecarboxamide], for which the “Corr. to TRAF2” value in assay [1] is reported as −0.5272. Moreover, the “Avg. Cell Count z-score” value in the assay on U2OS cells is recorded as −0.7392. Besides, the “Corr. to YAP1 cluster” value in assay [2] is recorded as 0.4883.
Taken in the same sequence, the figures for `O=C(C[C@H]1CC[C@@H]2[C@H](COC[C@@H](O)CN2Cc2ccc3c(c2)OCO3)O1)N1CCCCC1` [BRD-K41723088, 2-[(3S,6aR,8R,10aR)-1-(1,3-benzodioxol-5-ylmethyl)-3-hydroxy-3,4,6,6a,8,9,10,10a-octahydro-2H-pyrano[2,3-c][1,5]oxazocin-8-yl]-1-piperidin-1-ylethanone] were −0.4389, −0.07095 and 0.4916.
